{"source": "ChEMBL document CHEMBL6120937", "about": "“PROTAC technology: From drug development to probe technology for target deconvolution” (Eur J Med Chem, 2024)", "key": {"RAW264.7": {"system": "RAW264.7", "assay": "Anti-inflammatory activity in mouse RAW264.7 cells assessed as inhibition of LPS-induced NO production incubated for 24 hrs by Griess reagent based analysis", "format": "functional, cell-based", "details": "RAW264.7, 24 h"}, "Jurkat": {"system": "Jurkat", "assay": "Antiproliferative activity against human Jurkat cells assessed as reduction in cell viability incubated for 72 hrs by CCK-8 assay", "format": "functional, cell-based"}, "[1]": {"assay": "Inhibition of hedgehog in […] cells", "format": "cell-based"}, "HCT-116": {"system": "HCT-116", "assay": "Cytotoxicity against human HCT-116 cells assessed as reduction in cell growth incubated for 72 hrs by CCK-8 assay", "format": "functional, cell-based", "details": "HCT-116, 72 h"}}, "data": [{"smiles": "C=C1CCC2C(/C=C(\\C)C(=O)[C@@]3(O)C[C@H](C)[C@H](O)C3[C@H]1OCc1cn(CCOCCOCCOCCNc3cccc4c3C(=O)N(C3CCC(=O)NC3=O)C4=O)nn1)C2(C)C", "note": "(some centres undefined)", "values": [{"measurement": "IC50", "setting": "RAW264.7", "result": 8.34, "unit": "µM"}]}, {"smiles": "CC1=C(O)C(=O)C=C2C1=CC=C1[C@@]2(C)CC[C@@]2(C)[C@@H]3C[C@](C)(C(=O)NCCOCCNc4cccc5c4C(=O)N(C4CCC(=O)NC4=O)C5=O)CC[C@]3(C)CC[C@@]12C", "note": "(some centres undefined)", "values": [{"measurement": "IC50", "setting": "Jurkat", "result": 0.25, "unit": "µM"}]}, {"smiles": "COCCOC(=O)C1=C(c2cccc(OCc3cn(CCCCCCOc4cccc5c4C(=O)N(C4CCC(=O)NC4=O)C5=O)nn3)c2)C2=C(CC(c3ccccc3OC)CC2=O)NC1C", "note": "(centres undefined)", "values": [{"measurement": "IC50", "setting": "[1]", "result": 6.21, "unit": "µM"}]}, {"smiles": "CN1c2ccc(F)cc2C(=O)N2CCc3c([nH]c4ccc(OCCCNC(=O)CCCCCC#Cc5cccc6c5CN(C5CCC(=O)NC5=O)C6=O)cc34)C21", "note": "(centres undefined)", "values": [{"measurement": "IC50", "setting": "HCT-116", "result": 0.02, "unit": "µM"}]}]}
